Experimental data: US8273760B2, “Indolo[3,2-c]quinoline compounds” (Kaohsiung Medical University, priority 2008, dated 2012)
Where a name gives a salt, the structure may show the parent alone. Read-outs that look alike come from different tables or passages of the source.

How the values were obtained:
OVCAR-3 = assay: In vitro anticancer assay (NCI panel), OVCAR-3; format: cell-based; conditions: Homo sapiens; OVCAR-3, ovarian cancer
Experimental: (§1) Selected compounds were evaluated in vitro against the NCI's full panel of 60 cancer cell lines derived from nine cancer cell types, including: leukemia (CCRF-CEM, HL-60 (TB), K-562, MOLT-4, RPMI-8226, and SR); non-small cell lung cancer (A549/ATCC, EKVX, HOP-62, HOP-92, NCI-H226, NCI-H23, NCI-H322M, and NCI-H522); colon cancer (COLO 205, HCC-2998, HCT-116, HCT-15, HT29, KM12, and SW-620); CNS cancer (SF-268, SF-295, SF-539, SNB-19, SNB-75, and U251); melanoma (LOX IMVI, MALME-3M, M14, SK-MEL-2, SK-MEL-28, SK-MEL-5, UACC-62, and UACC-257); ovarian cancer (IGROV1, OVCAR-3, OVCAR-4, OVCAR-5, OVCAR-8, and SK-OV-3); renal cancer (786-0, A498, ACHN, CAKI-1, RXF 393, SN12C, TK-10, and UO-31); prostate cancer (PC-3 and DU-145); and breast cancer (MCF7, MCF7/ADR-RES, MDA-MB-231/ATCC, HS 578T, MDA-MB-435, MDA-N, and T-47D). For each compound, dose-response curves for each cell line were measured with five different drug concentrations, and the concentration causing 50% cell growth inhibition (GI50) compared with the control was calculated. The mean GI50 values of each tested compound for all the 60 tumor cell lines were also calculated.

OVCAR-8 = assay: In vitro anticancer assay (NCI panel), OVCAR-8; format: cell-based; conditions: Homo sapiens; OVCAR-8, ovarian cancer
Experimental: as §1

SNB-19 = assay: In vitro anticancer assay (NCI panel), SNB-19; format: cell-based; conditions: Homo sapiens; SNB-19, CNS cancer
Experimental: as §1

COLO 205 = assay: In vitro anticancer assay (NCI panel), COLO 205; format: cell-based; conditions: Homo sapiens; COLO 205, colon cancer
Experimental: as §1

MDA-MB-231/ATCC = assay: In vitro anticancer assay (NCI panel), MDA-MB-231/ATCC; format: cell-based; conditions: Homo sapiens, breast cancer
Experimental: as §1

HL-60 (TB) = assay: In vitro anticancer assay (NCI 60 cell line panel), HL-60 (TB); format: cell-based; conditions: Homo sapiens, leukemia
Experimental: as §1

SN12C = assay: In vitro anticancer assay (NCI panel), SN12C; format: cell-based; conditions: Homo sapiens, renal cancer
Experimental: as §1

SR = assay: In vitro anticancer assay (NCI panel), SR; format: cell-based; conditions: Homo sapiens, leukemia
Experimental: as §1

NCI-H460 = assay: In vitro anticancer assay (NCI panel), NCI-H460; format: cell-based; conditions: Homo sapiens; NCI-H460, non-small cell lung cancer
Experimental: as §1

HCT-116 = assay: In vitro anticancer assay (NCI panel), HCT-116; format: cell-based; conditions: Homo sapiens; HCT-116, colon cancer
Experimental: as §1

PC-3 = assay: In vitro anticancer assay (NCI panel), PC-3; format: cell-based; conditions: Homo sapiens; PC-3, prostate cancer
Experimental: as §1

786-0 = assay: In vitro anticancer assay (NCI panel), 786-0; format: cell-based; conditions: Homo sapiens; 786-0, renal cancer
Experimental: as §1

SK-MEL-2 = assay: In vitro anticancer assay (NCI panel), SK-MEL-2; format: cell-based; conditions: Homo sapiens; SK-MEL-2, melanoma
Experimental: as §1

HOP-62 = assay: In vitro anticancer assay (NCI panel), HOP-62; format: cell-based; conditions: Homo sapiens; HOP-62, non-small cell lung cancer
Experimental: as §1

A549/ATCC = assay: In vitro anticancer assay (NCI panel), A549/ATCC; format: cell-based; conditions: Homo sapiens, non-small cell lung cancer
Experimental: as §1

UACC-62 = assay: In vitro anticancer assay (NCI panel), UACC-62; format: cell-based; conditions: Homo sapiens; UACC-62, melanoma
Experimental: as §1

MCF7 = assay: In vitro anticancer assay (NCI panel), MCF7; format: cell-based; conditions: Homo sapiens; MCF7, breast cancer
Experimental: as §1

DU-145 = assay: In vitro anticancer assay (NCI panel), DU-145; format: cell-based; conditions: Homo sapiens; DU-145, prostate cancer
Experimental: as §1

SF-295 = assay: In vitro anticancer assay (NCI panel), SF-295; format: cell-based; conditions: Homo sapiens; SF-295, CNS cancer
Experimental: as §1

ACHN = assay: In vitro anticancer assay (NCI panel), ACHN; format: cell-based; conditions: Homo sapiens, renal cancer
Experimental: as §1

HT29 = assay: In vitro anticancer assay (NCI panel), HT29; format: cell-based; conditions: Homo sapiens, HT-29; HT29, colon cancer
Experimental: as §1

MDA-MB-435 = assay: In vitro anticancer assay (NCI panel), MDA-MB-435; format: cell-based; conditions: Homo sapiens; MDA-MB-435, breast cancer
Experimental: as §1

LOX IMVI = assay: In vitro anticancer assay (NCI panel), LOX IMVI; format: cell-based; conditions: Homo sapiens, melanoma
Experimental: as §1

K-562 = assay: In vitro anticancer assay (NCI panel), K-562; format: cell-based; conditions: Homo sapiens, K562; K-562, leukemia
Experimental: as §1

SF-268 = assay: In vitro anticancer assay (NCI panel), SF-268; format: cell-based; conditions: Homo sapiens; SF-268, CNS cancer
Experimental: as §1

OVCAR-5 = assay: In vitro anticancer assay (NCI panel), OVCAR-5; format: cell-based; conditions: Homo sapiens; OVCAR-5, ovarian cancer
Experimental: as §1

[1] = system: NCI's full panel of 60 cancer cell lines; assay: In vitro anticancer assay, all cell lines of the NCI panel; format: cell-based, human; conditions: Homo sapiens
Experimental: as §1

telomerase = telomerase (Homo sapiens, UniProt O14746); assay: Telomeric Repeat Amplification Protocol (TRAP) assay, cell-free; conditions: 0.5 μg total cell extract from H1299 human lung cancer cells, FIG. 1
Sequence of telomerase (O14746 whole entry): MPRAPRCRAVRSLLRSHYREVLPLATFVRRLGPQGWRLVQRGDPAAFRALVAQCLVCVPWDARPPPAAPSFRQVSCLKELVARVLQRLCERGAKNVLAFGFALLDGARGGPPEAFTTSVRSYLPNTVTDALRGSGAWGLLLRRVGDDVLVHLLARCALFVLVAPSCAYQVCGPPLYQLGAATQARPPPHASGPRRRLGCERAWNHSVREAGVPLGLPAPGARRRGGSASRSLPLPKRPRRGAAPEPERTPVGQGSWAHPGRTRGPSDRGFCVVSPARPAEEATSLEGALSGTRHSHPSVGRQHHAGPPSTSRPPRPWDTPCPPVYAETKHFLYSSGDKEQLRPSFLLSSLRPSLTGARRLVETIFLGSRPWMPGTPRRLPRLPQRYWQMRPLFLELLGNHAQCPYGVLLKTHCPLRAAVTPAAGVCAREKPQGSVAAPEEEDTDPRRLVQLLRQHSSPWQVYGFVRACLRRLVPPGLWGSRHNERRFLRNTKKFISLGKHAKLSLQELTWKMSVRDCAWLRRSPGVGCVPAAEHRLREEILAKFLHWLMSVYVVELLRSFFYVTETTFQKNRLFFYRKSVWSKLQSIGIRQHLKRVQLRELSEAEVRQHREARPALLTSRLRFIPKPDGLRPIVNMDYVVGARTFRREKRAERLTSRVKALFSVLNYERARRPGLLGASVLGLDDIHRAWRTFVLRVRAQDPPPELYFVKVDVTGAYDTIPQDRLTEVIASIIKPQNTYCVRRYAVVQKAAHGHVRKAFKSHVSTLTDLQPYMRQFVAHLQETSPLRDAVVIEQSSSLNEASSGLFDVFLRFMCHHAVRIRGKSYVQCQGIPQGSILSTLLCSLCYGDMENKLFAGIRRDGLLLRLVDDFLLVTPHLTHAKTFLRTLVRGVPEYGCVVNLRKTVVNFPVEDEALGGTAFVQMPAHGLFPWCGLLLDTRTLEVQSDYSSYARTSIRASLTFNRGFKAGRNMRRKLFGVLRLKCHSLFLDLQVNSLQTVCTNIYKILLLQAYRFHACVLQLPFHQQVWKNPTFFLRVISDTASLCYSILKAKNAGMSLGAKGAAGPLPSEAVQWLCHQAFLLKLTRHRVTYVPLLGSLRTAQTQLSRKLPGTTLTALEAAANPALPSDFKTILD

[2] = mean values of over all cell lines tested, read-out: MG MID (mean GI50)

Compound	GI50 (OVCAR-3)	GI50 (OVCAR-8)	GI50 (SNB-19)	GI50 (COLO 205)	GI50 (MDA-MB-231/ATCC)	GI50 (HL-60 (TB))	GI50 (SN12C)	GI50 (SR)	GI50 (NCI-H460)	GI50 (HCT-116)	GI50 (786-0)	GI50 (SK-MEL-2)	GI50 (HOP-62)	GI50 (A549/ATCC)	GI50 (UACC-62)	GI50 (MCF7)	GI50 (DU-145)	GI50 (SF-295)	GI50 (ACHN)	GI50 (HT29)	further results
Cl.OCCNCCNc1nc2ccccc2c2[nH]c3ccccc3c12 [Compound 9, 2-[2-(11H-Indolo[3,2-c]quinolin-6-ylamino)ethylamino]ethanol hydrochloride]	1310 nM	810 nM	2100 nM	1760 nM	1240 nM	1310 nM	1260 nM	900 nM	1460 nM	190 nM	340 nM	2250 nM	370 nM	980 nM	2000 nM	1240 nM	740 nM	1410 nM	380 nM	560 nM	GI50 (PC-3): 880 nM; GI50 (MDA-MB-435): 1460 nM; GI50 (LOX IMVI): 440 nM; GI50 (K-562): 1550 nM; GI50 (SF-268): 1360 nM; GI50 (OVCAR-5): 580 nM; melting point: 276 °C; GI50 [1, 2]: 1070 nM
Cl.Nc1nc2ccccc2c2[nH]c3ccccc3c12 [Compound 7e, 11H-Indolo[3,2-c]quinolin-6-ylamine hydrochloride]	1420 nM	980 nM	1100 nM	1070 nM	1220 nM	1980 nM	1240 nM	640 nM	410 nM	500 nM	1120 nM	1540 nM	1130 nM	1090 nM	13500 nM	1190 nM	1940 nM	1030 nM	480 nM	510 nM	GI50 (MDA-MB-435): 940 nM; GI50 (LOX IMVI): 1050 nM; GI50 (K-562): 620 nM; GI50 (SF-268): 1970 nM; GI50 (OVCAR-5): 1840 nM; melting point: 377 to 378 °C; GI50 [1, 2]: 1290 nM
c1ccc2c(c1)nc(NCCN1CCNCC1)c1c3ccccc3[nH]c21 (as salt: hydrochloride) [Compound 5, N-(11H-Indolo[3,2-c]quinolin-6-yl)-2-(piperazin-1-yl)ethanamine]																					melting point: 210 to 211 °C
CN(CCCNc1nc2ccccc2c2[nH]c3ccccc3c12)CCCNc1nc2ccccc2c2[nH]c3ccccc3c12.Cl [Compound 8b, N,N-bis-[3-(11H-indolo[3,2-c]quinolin-6-yl)aminopropyl]-N-methylamine hydrochloride]	50 nM	< 10 nM	< 10 nM	20 nM	90 nM	< 10 nM	< 10 nM	< 10 nM	< 10 nM	< 10 nM	< 10 nM	70 nM	< 10 nM	< 10 nM	60 nM	< 10 nM	50 nM	< 10 nM	20 nM	< 10 nM	GI50 (PC-3): 70 nM; concentration that completely inhibited telomerase activity (telomerase): approximately 0.02 nM; GI50 (MDA-MB-435): 110 nM; GI50 (LOX IMVI): < 10 nM; GI50 (K-562): < 10 nM; GI50 (SF-268): < 10 nM; GI50 (OVCAR-5): 80 nM; GI50 [1, 2]: < 20 nM; GI50 ([1]; span over the cell lines of Table 2, read-out: GI50 value for each cell line (span over the cell lines)): 10 to 110 nM
Cl.OCCNc1nc2ccccc2c2[nH]c3ccccc3c12 [Compound 7d, 2-(11H-indolo[3,2-c]quinolin-6-ylamino)ethanol hydrochloride]	470 nM	360 nM	410 nM	310 nM	430 nM	560 nM	220 nM	210 nM	290 nM	230 nM	450 nM	570 nM	580 nM	410 nM	1150 nM	370 nM	690 nM	450 nM	160 nM	280 nM	GI50 (MDA-MB-435): 410 nM; GI50 (LOX IMVI): 360 nM; GI50 (K-562): 460 nM; GI50 (SF-268): 560 nM; GI50 (OVCAR-5): 1030 nM; melting point: 344 to 345 °C; GI50 [1, 2]: 460 nM
